Like-named read-outs stand apart in the source and are kept apart here.
Tested on: explant tissue from the dermoepidermal junction of the hoof
Format: cell-based
Method: An in vitro study was conducted to analyze the protective effects of tirilazad mesylate on cellular degeneration as a result of Bothrops alternatus snake venom as a model for laminitis. Explant tissue samples were obtained from the dermoepidermal junction of the hoof of the right forelimb under nervous system block without the need for euthanasia.
Under sterile conditions, laminar cuts (mini-explants) were made of each explant and the tissue washed with physiological solution. The mini-explants were pre-incubated for 5 hours with tirilazad and then for 24 hours with Bothrops venom. Culture medium was as follows: Dulbecco's […] (DMEM, GIBCO-Invitrogen) with 10% heat-inactivated fetal bovine serum (FBS, GIBCO-Invitrogen), L-Glutamine (29.2 mg/mL), Penicillin (10,000 units/mL), and Streptomycin (10,000 μg/mL, GIBCO-Invitrogen) as antibiotics.
Histopathology: Tissues were processed with classical histological techniques, e.g., cutting by microtome (Minot) and stained with hematoxylin-eosin (H-E) and Periodic Acid Schiff (PAS) stains.

[1] = Tirilazad 1 μM (5 hours pre-incubation) + venom 75 μg/ml (24 hours), listed as tirilazad
[2] = Tirilazad 1 μM alone, no venom, listed as tirilazad
[3] = Tirilazad 3 μM (5 hours pre-incubation) + venom 75 μg/ml (24 hours)
[4] = Tirilazad 3 μM alone, no venom, listed as tirilazad
[5] = Tirilazad 10 μM (5 hours pre-incubation) + venom 75 μg/ml (24 hours), listed as tirilazad
[6] = Tirilazad 10 μM alone, no venom
[7] = Tirilazad 10 μM alone, no venom, listed as tirilazad
[8] = Tirilazad 20 μM (5 hours pre-incubation) + venom 75 μg/ml (24 hours)
[9] = Tirilazad 20 μM alone, no venom

## C[C@@H]1C[C@H]2[C@@H]3CCC4=CC(=O)C=C[C@]4(C)C3=CC[C@]2(C)[C@H]1C(=O)CN1CCN(c2cc(N3CCCC3)nc(N3CCCC3)n2)CC1 [Tirilazad, 16α-methyl-21-[4-[2,6-bis(1-pyrrolidinyl)-4-pyrimidinyl]-1-piperazinyl]pregna-1,4,9(11)-triene-3,20-dione]
Tirilazad 1 μM (5 hours pre-incubation) + venom 75 μg/ml (24 hours)
  Separation of Basement Membrane: No
[1]
  Cell Nuclei: intense presence of altered epidermal cells
  Pyknosis or Karyopyknosis: nuclear pyknosis
  Separation of Basement Membrane: did not show separation of the basement membrane
Tirilazad 1 μM alone, no venom
  Pyknosis or Karyopyknosis: No
  Separation of Basement Membrane: No
[2]
  Cell Nuclei: epidermal cells were normal and showed preserved cytoplasmic and nuclear structure
  Separation of Basement Membrane: did not show separation of the basement membrane
[3]
  Cell Nuclei: intense presence of altered epidermal cells
  Pyknosis or Karyopyknosis: nuclear pyknosis predominating
  Separation of Basement Membrane: slight separation of the basement membrane
Tirilazad 3 μM alone, no venom
  Separation of Basement Membrane: No
[4]
  Cell Nuclei: slight epidermal cytoplasmic and nuclear alteration
  Separation of Basement Membrane: did not show separation of the basement membrane
Tirilazad 10 μM (5 hours pre-incubation) + venom 75 μg/ml (24 hours)
  Separation of Basement Membrane: No
[5]
  Cell Nuclei: Moderate presence of altered epidermal cells
  Pyknosis or Karyopyknosis: moderate nuclear pyknosis
  Separation of Basement Membrane: did not show separation of the basement membrane
[6]
  Pyknosis or Karyopyknosis: No
  Separation of Basement Membrane: No
[7]
  Cell Nuclei: epidermal cells were normal and showed preserved cytoplasmic and nuclear structure
  Separation of Basement Membrane: did not show separation of the basement membrane
[8]
  Cell Nuclei: intense presence of altered epidermal cells
  Pyknosis or Karyopyknosis: intense nuclear pyknosis
  Separation of Basement Membrane: intense separation of the basement membrane
[9]
  Cell Nuclei: epidermal cells were normal and showed preserved cytoplasmic and nuclear structure
  Pyknosis or Karyopyknosis: No
  Separation of Basement Membrane: intense separation of the basement membrane
Summary of the explant study
  Effect on cellular structure in hoof tissue (overall conclusion): provides a protective and/or therapeutic effect on cellular structure in hoof tissue

Reference: patent publication US20240285653A1, “COMPOSITIONS AND METHODS FOR TREATMENT AND PREVENTION OF DISEASES UTILIZING TIRILAZAD SALTS” (priority 2022, published 2024)
